Source: the supplement of paper PMC10307832

Experiments:
Assay in all cases: relative viability (nuclei count vs DMSO), 5 days (fraction); higher = more cells survive
[1] = test system: ABC-1
Summary of the method: (§1)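 Relative viability is defined as nuclei in treated wells over nuclei in vehicle wells. Duplicate plates were run and medians reported. Lung cancer cell lines in 1536-well plates were dosed by pin tool one day after seeding, with one drug or with a fixed anchor-drug dose plus five library-drug doses (not always all listed) in √10 steps, and nuclei were counted after 5 days.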

[2] = test system: COR-L23
Summary of the method: as §1

[3] = test system: ChaGo-K-1
Summary of the method: as §1

[4] = test system: NCI-H1437
Summary of the method: as §1

[5] = test system: NCI-H1623
Summary of the method: as §1

[6] = test system: NCI-H1651
Summary of the method: as §1

[7] = test system: SK-MES-1
Summary of the method: as §1

[8] = test system: SW 1573
Summary of the method: as §1

[9] = test system: A549
Summary of the method: as §1

[10] = test system: Calu-6
Summary of the method: as §1

[11] = test system: EBC-1
Summary of the method: as §1

[12] = test system: IA-LM
Summary of the method: as §1

[13] = test system: NCI-H1299
Summary of the method: as §1

[14] = test system: NCI-H1648
Summary of the method: as §1

[15] = test system: NCI-H1703
Summary of the method: as §1

CCN(CC)CCCCNc1ncc2cc(-c3cc(OC)cc(OC)c3)c(NC(=O)NC(C)(C)C)nc2n1 + Cc1nc(Nc2ncc(C(=O)Nc3c(C)cccc3Cl)s2)cc(N2CCN(CCO)CC2)n1 [Dasatinib] (partner 0.075 µM)
relative viability ([1]; first compound 0.01 µM): 0.617
relative viability ([1]; first compound 0.03162 µM): 0.541
relative viability ([1]; first compound 0.1 µM): 0.618
relative viability ([1]; first compound 0.3162 µM): 0.548
relative viability ([1]; first compound 1 µM): 0.535
relative viability ([2]; first compound 0.01 µM): 0.527
relative viability ([2]; first compound 0.03162 µM): 0.549
relative viability ([2]; first compound 0.1 µM): 0.546
relative viability ([2]; first compound 0.3162 µM): 0.566
relative viability ([2]; first compound 1 µM): 0.608
relative viability ([3]; first compound 0.01 µM): 0.584
relative viability ([3]; first compound 0.03162 µM): 0.602
relative viability ([3]; first compound 0.1 µM): 0.655
relative viability ([3]; first compound 0.3162 µM): 0.643
relative viability ([3]; first compound 1 µM): 0.514
relative viability ([4]; first compound 0.01 µM): 0.366
relative viability ([4]; first compound 0.03162 µM): 0.504
relative viability ([4]; first compound 0.1 µM): 0.419
relative viability ([4]; first compound 0.3162 µM): 0.447
relative viability ([4]; first compound 1 µM): 0.335
relative viability ([5]; first compound 0.01 µM): 0.504
relative viability ([5]; first compound 0.03162 µM): 0.449
relative viability ([5]; first compound 0.1 µM): 0.579
relative viability ([5]; first compound 0.3162 µM): 0.571
relative viability ([5]; first compound 1 µM): 0.516
relative viability ([6]; first compound 0.01 µM): 0.465
relative viability ([6]; first compound 0.03162 µM): 0.448
relative viability ([6]; first compound 0.1 µM): 0.486
relative viability ([6]; first compound 0.3162 µM): 0.47
relative viability ([6]; first compound 1 µM): 0.288
relative viability ([7]; first compound 0.01 µM): 0.36
relative viability ([7]; first compound 0.03162 µM): 0.375
relative viability ([7]; first compound 0.1 µM): 0.407
relative viability ([7]; first compound 0.3162 µM): 0.281
relative viability ([7]; first compound 1 µM): 0.27
relative viability ([8]; first compound 0.01 µM): 0.355
relative viability ([8]; first compound 0.03162 µM): 0.537
relative viability ([8]; first compound 0.1 µM): 0.457
relative viability ([8]; first compound 0.3162 µM): 0.482
relative viability ([8]; first compound 1 µM): 0.326

O=c1cc(N2CCOCC2)oc2c(-c3cccc4c3sc3ccccc34)cccc12 + O=C(c1cc(Cc2n[nH]c(=O)c3ccccc23)ccc1F)N1CCN(C(=O)C2CC2)CC1 [Olaparib] (partner 8 µM)
relative viability ([9]; first compound 0.01 µM): 0.429
relative viability ([9]; first compound 0.03162 µM): 0.31
relative viability ([9]; first compound 0.1 µM): 0.295
relative viability ([9]; first compound 0.3162 µM): 0.356
relative viability ([9]; first compound 1 µM): 0.268
relative viability ([1]; first compound 0.01 µM): 0.917
relative viability ([1]; first compound 0.03162 µM): 0.686
relative viability ([1]; first compound 0.1 µM): 0.535
relative viability ([1]; first compound 0.3162 µM): 0.677
relative viability ([1]; first compound 1 µM): 0.726
relative viability ([2]; first compound 0.01 µM): 0.394
relative viability ([2]; first compound 0.03162 µM): 0.352
relative viability ([2]; first compound 0.1 µM): 0.327
relative viability ([2]; first compound 0.3162 µM): 0.318
relative viability ([2]; first compound 1 µM): 0.37
relative viability ([10]; first compound 0.01 µM): 0.614
relative viability ([10]; first compound 0.03162 µM): 0.606
relative viability ([10]; first compound 0.1 µM): 0.602
relative viability ([10]; first compound 0.3162 µM): 0.484
relative viability ([10]; first compound 1 µM): 0.657
relative viability ([3]; first compound 0.01 µM): 0.421
relative viability ([3]; first compound 0.03162 µM): 0.439
relative viability ([3]; first compound 0.1 µM): 0.434
relative viability ([3]; first compound 0.3162 µM): 0.447
relative viability ([3]; first compound 1 µM): 0.447
relative viability ([11]; first compound 0.01 µM): 0.709
relative viability ([11]; first compound 0.03162 µM): 0.667
relative viability ([11]; first compound 0.1 µM): 0.757
relative viability ([11]; first compound 0.3162 µM): 0.788
relative viability ([11]; first compound 1 µM): 0.624
relative viability ([12]; first compound 0.01 µM): 0.883
relative viability ([12]; first compound 0.03162 µM): 0.941
relative viability ([12]; first compound 0.1 µM): 0.766
relative viability ([12]; first compound 0.3162 µM): 0.793
relative viability ([12]; first compound 1 µM): 0.769
relative viability ([13]; first compound 0.01 µM): 0.961
relative viability ([13]; first compound 0.03162 µM): 0.946
relative viability ([13]; first compound 0.1 µM): 0.985
relative viability ([13]; first compound 0.3162 µM): 0.974
relative viability ([13]; first compound 1 µM): 0.917
relative viability ([4]; first compound 0.01 µM): 0.606
relative viability ([4]; first compound 0.03162 µM): 0.656
relative viability ([4]; first compound 0.1 µM): 0.725
relative viability ([4]; first compound 0.3162 µM): 0.656
relative viability ([4]; first compound 1 µM): 0.613
relative viability ([14]; first compound 0.03162 µM): 0.787
relative viability ([14]; first compound 0.1 µM): 1.28
relative viability ([14]; first compound 0.3162 µM): 0.936
relative viability ([14]; first compound 1 µM): 1.17
relative viability ([6]; first compound 0.01 µM): 0.19
relative viability ([6]; first compound 0.03162 µM): 0.188
relative viability ([6]; first compound 0.1 µM): 0.179
relative viability ([6]; first compound 0.3162 µM): 0.178
relative viability ([6]; first compound 1 µM): 0.168
relative viability ([15]; first compound 0.01 µM): 0.548
relative viability ([15]; first compound 0.03162 µM): 0.274
relative viability ([15]; first compound 0.1 µM): 0.411
relative viability ([15]; first compound 0.3162 µM): 0.446
relative viability ([15]; first compound 1 µM): 0.511
relative viability ([7]; first compound 0.01 µM): 0.68
relative viability ([7]; first compound 0.03162 µM): 0.71
relative viability ([7]; first compound 0.1 µM): 0.808
relative viability ([7]; first compound 0.3162 µM): 0.598
relative viability ([7]; first compound 1 µM): 0.634
relative viability ([8]; first compound 0.01 µM): 0.491
relative viability ([8]; first compound 0.03162 µM): 0.446
relative viability ([8]; first compound 0.1 µM): 0.447
relative viability ([8]; first compound 0.3162 µM): 0.441
relative viability ([8]; first compound 1 µM): 0.466
